Values belong to the compound of their own block, whether it stands above or below them.
Tests used:
[1] = tested on: AGE formation in collagen; test: Collagen AGE prevention assay; format: biochemical
Experimental: AGE Prevention—50 μl of ice-cold collagen solution was added to the wells of a 96 well plate. The plate was incubated overnight at 37° C. to allow the collagen solution to gel. On the following day, 40 μl of either test material (prepared in assay buffer), aminoguanidine (positive control), or assay buffer (negative control) was added to the plate. After the materials were added, 10 μl of a 500 mM glyceraldehyde solution was added to all of the wells. The plate was then read using a fluorometer (355 nm excitation and 405 nm emission) and then incubated for 24 hours in a humidified incubator at 37C. On the following day the plate was read again. AGE formation was determined by subtracting the […] for each sample.

[2] = tested on: preexisting AGEs in collagen; test: Collagen AGE reduction assay; format: biochemical
Experimental: AGE Reduction—50 μl of ice-cold collagen solution was added to the wells of a 96 well plate. The plate was then incubated overnight at 37C to allow the collagen solution to gel. On the following day, 10 μl of a 500 mM glyceraldehyde solution was added to all of the wells and the plate was incubated for 24 hours in a humidified incubator at 37° C. On the following day 40 μl of either test material (prepared in assay buffer), aminoguanidine (positive control), or assay buffer (negative control) was added to the plate. The plate was then read using a fluorometer (355 nm excitation and 405 nm emission) and then incubated again for 24 hours in a humidified incubator at 37C. On the following day the plate was read again. AGE formation was determined by subtracting the initial fluorescent measurement from the final fluorescent measurement for each sample.

human recombinant MMP-1 = molecular target: T1, human recombinant MMP-1 (Homo sapiens, UniProt P03956); test: Collagenase (MMP-1) inhibition (thiopeptolide/DTNB, 412 nm); format: biochemical
T1 sequence (P03956 100-469): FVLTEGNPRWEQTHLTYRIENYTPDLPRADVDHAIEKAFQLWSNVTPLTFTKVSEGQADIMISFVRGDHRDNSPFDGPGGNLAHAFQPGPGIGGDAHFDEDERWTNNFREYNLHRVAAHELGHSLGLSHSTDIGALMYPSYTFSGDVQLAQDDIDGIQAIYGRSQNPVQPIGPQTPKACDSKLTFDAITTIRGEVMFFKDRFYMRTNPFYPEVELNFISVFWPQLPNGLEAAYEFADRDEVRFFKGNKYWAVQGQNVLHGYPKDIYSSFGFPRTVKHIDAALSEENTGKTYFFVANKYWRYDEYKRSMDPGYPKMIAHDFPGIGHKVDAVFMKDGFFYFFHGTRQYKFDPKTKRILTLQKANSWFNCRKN
Excerpt: Matrix Metalloproteinase-1 (MMP-1) is an extracellular protease with an approximate molecular weight of 52-56 kD in its latent form. Upon cleavage of the proenzyme, the 22-46 kD MMP-1 becomes an active enzyme and can degrade many substrates including collagen, gelatin, and entactin. In human skin, increased MMP-1 activity can be induced via some disease states, exposure to UV irradiation or as part of the natural aging process. This can result in an imbalanced state where the degradation of collagen by MMP-1 exceeds its rate of replacement. Therefore, materials that inhibit MMP-1 activity can be beneficial for skin care. To screen inhibitors of MMP-1, human recombinant MMP-1 was incubated in the presence of a thiopeptolide substrate, potential inhibitors, and 5,5′-dithiobis(2-nitrobenzoic acid) (DTNB). When the thiopeptolide substrate is broken down by MMP-1, it releases a sulfhydryl group that can react with DTNB and form 2-nitro-5-thiobenzoic acid, which can be detected spectrophotometrically at 412 nm. Thus, in the presence of inhibitors, absorbance will be decrease relative to the non-inhibited enzyme.

elastase = test: Elastase inhibition (fibroblast lysate, STANA substrate, 405 nm); format: biochemical, human
Experimental: Human dermal fibroblasts were cultured and used as a source of the elastase enzyme. Elastase was partially purified from fibroblasts by lysing the cells in an elastase buffer and retaining the soluble portion of the lysate. Portions of this fibroblast lysate were then be incubated with test materials and a synthetic elastase substrate, Suc-([…])-p-Nitroaniline (STANA). Elastase acts upon the substrate, releasing p-nitroaniline, which can be detected with a spectrophotometer by measuring absorbance at a wavelength of 405 nm. Inhibition of elastase enzyme is indicated by a decrease in the amount of released p-nitroaniline as compared to the uninhibited enzyme.

[3] = tested on: MatTek EpiDerm tissue (UVB induced CPD formation in genomic DNA); test: Cyclobutane pyrimidine dimer (CPD) assay, UVB, ELISA; format: cell-based, human; conditions: for CPD in genomic DNA: pretreated overnight before UVB
Experimental: The testing system used for this assay was the MatTek EpiDerm, a skin model which consists of normal human-derived epidermal keratinocytes cultured to form a multilayered, highly differentiated model of the human epidermis. For this study, tissues were treated topically either overnight with the test materials prior to UVB exposure (pretreat group to assess prevention). Following treatment, DNA was extracted from the EpiDerm tissues and assayed for CPD content using an ELISA based method.

[4] = ingredients tested individually at the concentrations used in the blends

Structure (SMILES): N=C(N)NN [Aminoguanidine, aminoguanidine, reference compound]
Percent AGE Prevention ([1]; 8 mM): 56.8 ± 0.5%
Percent AGE Reduction ([2]; 8 mM): 33.4 ± 3.3%

Structure (SMILES): COc1ccc(S(=O)(=O)N(CC(=O)NO)CC(C)C)cc1 [NNGH, reference compound]
Percent Inhibition (collagenase) (human recombinant MMP-1; 2 uM): 94 ± 3%

Percent Inhibition (elastase) (elastase; 0.2 mM): 97 ± 0%
Structure (SMILES): CC(C)C[C@H](NP(=O)(O)O[C@@H]1O[C@@H](C)[C@H](O)[C@@H](O)[C@H]1O)C(=O)N[C@@H](Cc1c[nH]c2ccccc12)C(=O)O [Phosphoramidon, reference compound]

Percent Inhibition (elastase) (elastase; 0.075%): 30 ± 3%
Percent Inhibition (elastase) (elastase; 0.08%): 33 ± 2%
Percent Inhibition (collagenase) (human recombinant MMP-1; 0.075%): 4 ± 0%
Percent Inhibition (collagenase) (human recombinant MMP-1; 0.08%): 7 ± 1%
Structure (SMILES): Oc1ccc(/C=C/c2cc(O)cc(O)c2)cc1 [Resveratrol, 5-[(E)-2-(4-Hydroxyphenyl)ethen-1-yl]benzene-1,3-diol]
Percent AGE Prevention ([1]; 0.0375%): 20.8 ± 2.4%
Percent AGE Prevention ([1]; 0.075%): 38.4 ± 7.1%
preventing AGE formation (in words) [1, 4]: significantly effective
Percent AGE Reduction ([2]; 0.0375%): 28.2 ± 1.2%
Percent AGE Reduction ([2]; 0.075%): 32.8 ± 2.8%
reducing existing AGEs (in words) [2, 4]: significantly effective
elastase inhibition (in words) (elastase; summary of Table 10): effective at inhibiting elastase activity on its own
% Prevention of genomic DNA CPD formation ([3]; 0.0375%): 63%
% Prevention of genomic DNA CPD formation ([3]; 0.075%): 75%
CPD in genomic DNA ([3]; 0.0375%): 1.601 ± 0.180 ng/mL
CPD in genomic DNA ([3]; 0.075%): 1.115 ± 0.085 ng/mL

Structure (SMILES): Cc1c(C)c2c(c(C)c1O)CCC(C)(C(=O)O)O2 (stereo not drawn) [Trolox, reference compound]
% Prevention of genomic DNA CPD formation ([3]; 150 ug/ml): 67%
CPD in genomic DNA ([3]; 150 ug/ml): 1.439 ± 0.088 ng/mL
